Test results reported in ChEMBL document CHEMBL2073816 (J Biol Chem, 2001).

How the values were obtained:
[1] = molecular target: T1, Solute carrier family 22 member 2 (Homo sapiens, UniProt O15244); assay: TP_TRANSPORTER: inhibition of Choline uptake (Choline: 10 uM, NMN: 5000 uM) in Xenopus laevis oocytes; assay type: functional, cell-based; conditions: oocyte
T1 sequence (O15244 whole entry): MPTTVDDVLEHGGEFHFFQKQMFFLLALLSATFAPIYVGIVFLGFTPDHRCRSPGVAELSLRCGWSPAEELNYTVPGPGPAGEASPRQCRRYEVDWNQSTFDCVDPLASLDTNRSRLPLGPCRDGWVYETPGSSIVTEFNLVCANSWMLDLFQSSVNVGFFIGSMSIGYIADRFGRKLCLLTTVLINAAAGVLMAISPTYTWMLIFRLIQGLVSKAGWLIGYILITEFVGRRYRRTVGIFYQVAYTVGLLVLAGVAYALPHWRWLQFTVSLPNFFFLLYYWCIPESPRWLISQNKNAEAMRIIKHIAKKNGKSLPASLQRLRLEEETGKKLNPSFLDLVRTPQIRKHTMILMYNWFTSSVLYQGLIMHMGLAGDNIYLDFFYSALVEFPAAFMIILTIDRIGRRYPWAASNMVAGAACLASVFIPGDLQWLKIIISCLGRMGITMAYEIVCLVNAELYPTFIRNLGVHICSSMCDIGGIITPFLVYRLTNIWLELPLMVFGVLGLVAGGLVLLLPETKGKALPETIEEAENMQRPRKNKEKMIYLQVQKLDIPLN

[2] = molecular target: T2, Solute carrier family 22 member 1 (Rattus norvegicus, UniProt Q63089); assay: (§1) TP_TRANSPORTER: inhibition of Choline uptake (Choline: 10 uM, Quinine: 200 uM) in Xenopus laevis oocytes; assay type: functional, cell-based; conditions: oocyte
T2 sequence (Q63089 whole entry): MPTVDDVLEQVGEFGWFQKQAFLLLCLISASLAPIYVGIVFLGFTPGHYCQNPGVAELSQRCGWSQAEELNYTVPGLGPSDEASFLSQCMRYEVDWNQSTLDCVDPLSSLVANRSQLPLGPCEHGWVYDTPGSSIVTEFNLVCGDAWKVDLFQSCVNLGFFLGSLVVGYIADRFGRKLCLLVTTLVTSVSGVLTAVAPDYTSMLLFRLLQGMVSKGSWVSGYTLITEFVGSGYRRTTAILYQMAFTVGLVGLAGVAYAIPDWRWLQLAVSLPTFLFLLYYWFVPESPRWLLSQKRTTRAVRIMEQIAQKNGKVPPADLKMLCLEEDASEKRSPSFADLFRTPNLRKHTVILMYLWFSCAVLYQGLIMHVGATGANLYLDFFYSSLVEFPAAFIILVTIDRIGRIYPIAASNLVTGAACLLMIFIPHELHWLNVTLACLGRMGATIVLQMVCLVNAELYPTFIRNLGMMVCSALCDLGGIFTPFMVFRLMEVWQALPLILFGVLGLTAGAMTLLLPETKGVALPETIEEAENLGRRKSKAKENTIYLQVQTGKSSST

[3] = molecular target: T3, Solute carrier family 22 member 2 (Rattus norvegicus, UniProt Q9R0W2); assay: as §1; assay type: functional, cell-based; conditions: oocyte
T3 sequence (Q9R0W2 whole entry): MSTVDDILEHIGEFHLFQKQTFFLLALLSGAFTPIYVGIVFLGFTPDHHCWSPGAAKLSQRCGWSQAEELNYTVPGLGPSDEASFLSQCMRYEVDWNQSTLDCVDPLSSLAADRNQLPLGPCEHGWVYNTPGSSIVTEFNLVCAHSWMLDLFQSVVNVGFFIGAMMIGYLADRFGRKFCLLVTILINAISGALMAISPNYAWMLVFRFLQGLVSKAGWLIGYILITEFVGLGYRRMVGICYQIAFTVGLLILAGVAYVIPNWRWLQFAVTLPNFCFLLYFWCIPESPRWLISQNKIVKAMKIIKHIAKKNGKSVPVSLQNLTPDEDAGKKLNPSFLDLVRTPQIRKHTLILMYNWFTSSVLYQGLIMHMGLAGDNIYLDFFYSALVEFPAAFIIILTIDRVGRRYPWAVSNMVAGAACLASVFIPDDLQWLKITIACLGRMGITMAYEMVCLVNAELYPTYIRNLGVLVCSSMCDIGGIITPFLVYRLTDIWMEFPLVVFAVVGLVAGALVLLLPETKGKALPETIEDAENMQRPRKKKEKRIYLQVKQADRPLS

[4] = molecular target: T1, Solute carrier family 22 member 2; assay: TP_TRANSPORTER: inhibition of Choline uptake (Choline: 10 uM, TPeA: 200 uM) in Xenopus laevis oocytes; assay type: functional, cell-based; conditions: oocyte
[5] = substrate: C[N+](C)(C)CCO; assay: cells, lysate or membranes named

## CNC(=O)c1cccnc1 [NICOTINYL METHYLAMIDE]
[1]
  Activity: inhibitor [+]

## C=C[C@H]1C[N@@]2CC[C@H]1C[C@H]2[C@H](O)c1ccnc2ccc(OC)cc12 [QUININE]
[2]
  Activity: inhibitor [+]
[3]
  Activity: inhibitor [+]

## CCCCC[N+](CCCCC)(CCCCC)CCCCC [TETRAPENTYLAMMONIUM]
[4]
  Activity: inhibitor [+]

B1: Solute carrier family 22 member 2 (Rattus norvegicus) (protein)
chain: MSTVDDILEHIGEFHLFQKQTFFLLALLSGAFTPIYVGIVFLGFTPDHHCWSPGAAKLSQRCGWSQAEELNYTVPGLGPSDEASFLSQCMRYEVDWNQSTLDCVDPLSSLAADRNQLPLGPCEHGWVYNTPGSSIVTEFNLVCAHSWMLDLFQSVVNVGFFIGAMMIGYLADRFGRKFCLLVTILINAISGALMAISPNYAWMLVFRFLQGLVSKAGWLIGYILITEFVGLGYRRMVGICYQIAFTVGLLILAGVAYVIPNWRWLQFAVTLPNFCFLLYFWCIPESPRWLISQNKIVKAMKIIKHIAKKNGKSVPVSLQNLTPDEDAGKKLNPSFLDLVRTPQIRKHTLILMYNWFTSSVLYQGLIMHMGLAGDNIYLDFFYSALVEFPAAFIIILTIDRVGRRYPWAVSNMVAGAACLASVFIPDDLQWLKITIACLGRMGITMAYEMVCLVNAELYPTYIRNLGVLVCSSMCDIGGIITPFLVYRLTDIWMEFPLVVFAVVGLVAGALVLLLPETKGKALPETIEDAENMQRPRKKKEKRIYLQVKQADRPLS
[5]
  Km: 441 µM

B2: Solute carrier family 22 member 1 (Rattus norvegicus) (protein)
chain: MPTVDDVLEQVGEFGWFQKQAFLLLCLISASLAPIYVGIVFLGFTPGHYCQNPGVAELSQRCGWSQAEELNYTVPGLGPSDEASFLSQCMRYEVDWNQSTLDCVDPLSSLVANRSQLPLGPCEHGWVYDTPGSSIVTEFNLVCGDAWKVDLFQSCVNLGFFLGSLVVGYIADRFGRKLCLLVTTLVTSVSGVLTAVAPDYTSMLLFRLLQGMVSKGSWVSGYTLITEFVGSGYRRTTAILYQMAFTVGLVGLAGVAYAIPDWRWLQLAVSLPTFLFLLYYWFVPESPRWLLSQKRTTRAVRIMEQIAQKNGKVPPADLKMLCLEEDASEKRSPSFADLFRTPNLRKHTVILMYLWFSCAVLYQGLIMHVGATGANLYLDFFYSSLVEFPAAFIILVTIDRIGRIYPIAASNLVTGAACLLMIFIPHELHWLNVTLACLGRMGATIVLQMVCLVNAELYPTFIRNLGMMVCSALCDLGGIFTPFMVFRLMEVWQALPLILFGVLGLTAGAMTLLLPETKGVALPETIEEAENLGRRKSKAKENTIYLQVQTGKSSST
[5]
  Km: 346 µM

B3: Solute carrier family 22 member 2 (Homo sapiens) (protein)
chain: MPTTVDDVLEHGGEFHFFQKQMFFLLALLSATFAPIYVGIVFLGFTPDHRCRSPGVAELSLRCGWSPAEELNYTVPGPGPAGEASPRQCRRYEVDWNQSTFDCVDPLASLDTNRSRLPLGPCRDGWVYETPGSSIVTEFNLVCANSWMLDLFQSSVNVGFFIGSMSIGYIADRFGRKLCLLTTVLINAAAGVLMAISPTYTWMLIFRLIQGLVSKAGWLIGYILITEFVGRRYRRTVGIFYQVAYTVGLLVLAGVAYALPHWRWLQFTVSLPNFFFLLYYWCIPESPRWLISQNKNAEAMRIIKHIAKKNGKSLPASLQRLRLEEETGKKLNPSFLDLVRTPQIRKHTMILMYNWFTSSVLYQGLIMHMGLAGDNIYLDFFYSALVEFPAAFMIILTIDRIGRRYPWAASNMVAGAACLASVFIPGDLQWLKIIISCLGRMGITMAYEIVCLVNAELYPTFIRNLGVHICSSMCDIGGIITPFLVYRLTNIWLELPLMVFGVLGLVAGGLVLLLPETKGKALPETIEEAENMQRPRKNKEKMIYLQVQKLDIPLN
[5]
  Km: 102 µM
